The source of these data is ChEMBL document CHEMBL4261609, “Chemistry-driven glycoscience” (Bioorg Med Chem, 2018).

Experiment [1] deals with T1, L-selectin (Homo sapiens) (UniProt P14151).
T1 sequence (whole entry): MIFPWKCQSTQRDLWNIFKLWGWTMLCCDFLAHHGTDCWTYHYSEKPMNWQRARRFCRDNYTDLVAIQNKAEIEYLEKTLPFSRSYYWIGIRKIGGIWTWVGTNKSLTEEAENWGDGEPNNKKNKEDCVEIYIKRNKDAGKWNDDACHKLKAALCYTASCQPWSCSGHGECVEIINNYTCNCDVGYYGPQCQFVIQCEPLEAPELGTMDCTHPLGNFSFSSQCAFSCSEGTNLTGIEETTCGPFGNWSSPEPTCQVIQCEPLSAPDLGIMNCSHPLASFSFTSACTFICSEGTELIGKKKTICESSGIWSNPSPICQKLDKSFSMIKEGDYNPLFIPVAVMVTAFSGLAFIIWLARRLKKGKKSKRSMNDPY
Put plainly: Inhibition of human L-selectin transfected in mouse 300.19 cells assessed as decrease in protein-mediated cell rolling on GlyCAM-1 or PNAd preincubated for 5 mins followed by cell perfusion through laminar flow chamber coated with GlyCAM-1 or PNAd relative to control. The experiment is classed as cell-based.

A further experiment addresses T2, CD209 antigen (Homo sapiens, UniProt Q9NNX6).
T2 sequence (Q9NNX6 whole entry): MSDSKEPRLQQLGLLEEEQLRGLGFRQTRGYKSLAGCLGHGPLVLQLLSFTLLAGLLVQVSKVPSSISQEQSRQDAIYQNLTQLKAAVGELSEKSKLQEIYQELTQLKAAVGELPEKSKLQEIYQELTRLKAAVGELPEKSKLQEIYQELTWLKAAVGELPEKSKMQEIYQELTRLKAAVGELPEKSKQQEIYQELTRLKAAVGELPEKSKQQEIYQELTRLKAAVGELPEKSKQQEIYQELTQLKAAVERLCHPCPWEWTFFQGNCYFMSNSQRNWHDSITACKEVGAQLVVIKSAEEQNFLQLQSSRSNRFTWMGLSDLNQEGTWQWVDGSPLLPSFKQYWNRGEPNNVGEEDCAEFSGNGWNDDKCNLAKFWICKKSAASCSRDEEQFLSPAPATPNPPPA
As to the kind of experiment: Inhibition of DC-SIGN (unknown origin).

For the compound `CCCO[C@@H]1O[C@H](COS(=O)(=O)O)[C@@H](O[C@@H]2O[C@H](CO)[C@H](O)[C@H](O[C@]3(C(=O)O)C[C@H](O)[C@@H](NC(C)=O)[C@H]([C@H](O)[C@H](O)CO)O3)[C@H]2O)[C@H](O[C@@H]2O[C@@H](C)[C@@H](O)[C@@H](O)[C@@H]2O)[C@@H]1O`, the fold change (FC) in experiment [1] is 3.

A word on the Ki: it is the equilibrium dissociation constant of an inhibitor or competing ligand from its target. Read a high Ki as a looser hold on the target. The compound `CC(=O)N[C@@H]1C(O)O[C@H](CO)[C@@H](O)[C@@H]1O` (some centres undefined) displayed an inhibitory constant (Ki) on CD209 antigen of 11 mM.

By IC50 is commonly meant the concentration that inhibits the measured activity by half. Compound `NC(=O)[C@@H](CCC(=O)O)NC(=O)[C@H]1C[C@@H](O)[C@H](O)[C@H](O)[C@H]1SCCCCSCc1cccc(F)c1` registered an IC50 against CD209 antigen of 3.2 mM.

In the case of `CCCO[C@@H]1O[C@H](CO)[C@@H](O[C@@H]2O[C@H](CO)[C@H](O)[C@H](O[C@]3(C(=O)O)C[C@H](O)[C@@H](NC(C)=O)[C@H]([C@H](O)[C@H](O)CO)O3)[C@H]2O)[C@H](O[C@@H]2O[C@@H](C)[C@@H](O)[C@@H](O)[C@@H]2O)[C@@H]1O`, the fold change (FC) in experiment [1] was found to be 1.
